Source: US20040005537A1, “Method of identifying toxic agents using differential gene expression” (priority 2000, published 2004)

Columns and labels:
[1] = cited from earlier work
[2] = tested on: rat heart tissue; experiment: GENECALLING differential gene expression analysis after dosing of serotonin modulating agents; format: in vivo, Sprague Dawley rats
Method: Control animals received sterile water or canola oil. The animals were sacrificed 24 hours following the last dose. Liver tissue was dissected from the animals, and total RNA was recovered from the dissected tissue. cDNA was prepared and the resulting samples were processed through using GENECALLING™ differential expression analysis as described in U.S. Pat. No. 5,871,697 and in Shimkets et al., Nature Biotechnology 17:798-803 (1999). The contents of these patents and publications are incorporated herein by reference in their entirety.
Thousands of gene fragments were initially found to be differentially expressed in rat heart tissue in response to serotonin modulating agents in. Genes fragments whose expression levels were modulated greater than ±1.5-fold were selected for further analysis.
Column 6 of Table 1, entitled “Function”, lists the type of classification assigned for the protein, based on its function. The 210 single nucleic acid sequences identified herein, are referred to herein as CARDIOTOX 1-210.

SMILES: CCN[C@@H](C)Cc1cccc(C(F)(F)F)c1 [dexfenfluramine]
- classification as cardiotoxic or noncardiotoxic serotonin modulating agent ([1]; grouping used to generate the distinguishing gene profiles): cardiotoxic
- side effect reported in a subset of patients ([1]; patients to which they are administered): valvular heart disease
- Effects on Transcription Level: Novel gene fragment, 524 bp, 86% SI to mouse F-box protein FBX6b [AF176526] ([2]; CARDIOTOX 1): +1.5 fold
- Effects on Transcription Level: Novel gene fragment, 306 bp, 91% SI to mouse low density lipoprotein receptor related protein 4 [AB013874] ([2]; CARDIOTOX 2): −1.8 fold
- Effects on Transcription Level: Novel gene fragment, 540 bp, 97% SI to mouse skeletal muscle alpha-actin [X03766] ([2]; CARDIOTOX 3): +2.3 fold
- Effects on Transcription Level: Novel gene fragment, 80 bp ([2]; CARDIOTOX 4): −1.6 fold
- Effects on Transcription Level: Novel gene fragment, 957 bp, 99% SI to kidney injury associated moleculer HW036 [V80591] ([2]; CARDIOTOX 5): −1.6 fold
- Effects on Transcription Level: Novel gene fragment, 282 bp, 85% SI to human KIAA1515 protein [AB040948] ([2]; CARDIOTOX 6): −1.7 fold
- Effects on Transcription Level: Novel gene fragment, 405 bp, 88% SI to human 2-oxoglutarate dehydrogenase [D10523] ([2]; CARDIOTOX 7): +1.5 fold
- Effects on Transcription Level: UCP2 ([2]; CARDIOTOX 8, GenBank AB010743): −1.6 fold
- Effects on Transcription Level: Plasma membrane Ca2 + ATPase-isoform 1 ([2]; CARDIOTOX 9, GenBank J03753): −1.6 fold
- Effects on Transcription Level: Novel gene fragment, 242 bp, 97% SI to mouse HSP86 heat-shock protein [X16857] ([2]; CARDIOTOX 10): +1.4 fold
- Effects on Transcription Level: Novel gene fragment, 280 bp, 65% SI to human TRF1-interacting, ankyrin-related ADP-ribose polymerase [AF082556] ([2]; CARDIOTOX 11): +1.4 fold
- Effects on Transcription Level: Novel gene fragment, 348 bp, 88% SI to mouse Sec61 protein complex gamma subunit [U11027] ([2]; CARDIOTOX 12): +1.3 fold
- Effects on Transcription Level: Novel gene fragment 553 bp, 93% SI to mouse Sid329 [AB024984] ([2]; CARDIOTOX 13): +1.4 fold
- Effects on Transcription Level: Kruppel-like transcription factor ([2]; CARDIOTOX 14, GenBank AB020759): +1.3 fold
- Effects on Transcription Level: Ribosomal protein L3 ([2]; CARDIOTOX 15, GenBank X62166): +1.4 fold
- Effects on Transcription Level: Glucose-regulated protein (GRP) 75 ([2]; CARDIOTOX 16, GenBank S78556): +1.4 fold
- Effects on Transcription Level: Immunoglobulin heavy chain binding protein (BiP) ([2]; CARDIOTOX 17, GenBank M14050): +1.4 fold
- Effects on Transcription Level: Membrane-spannining proteoglycan NG2 ([2]; CARDIOTOX 18, GenBank X56541): −1.4 fold
- Effects on Transcription Level: Novel gene fragment, 1294 bp, 96% SI to mouse Sui 1 (elF) homolog [AF129888] ([2]; CARDIOTOX 19): +1.6 fold
- Effects on Transcription Level: Novel gene fragment, 723 bp, 85% SI to human translation initiation factor elF3 p40 subunit [U54559] ([2]; CARDIOTOX 20): +1.6 fold
- Effects on Transcription Level: Novel gene fragment, 1324 bp, 76% SI to human flavoprotein subunit of complex II [D30648] ([2]; CARDIOTOX 21): +1.5 fold
- Effects on Transcription Level: Novel gene fragment, 852 bp, 81% SI to human vacuolar proton-ATPase subunit M9.2 [Y15286] ([2]; CARDIOTOX 22): +1.5 fold
- Effects on Transcription Level: Novel gene fragment, 178 bp, 91% SI to mouse myosin light chain-2 isoform MLC-2a [S70785] ([2]; CARDIOTOX 23): +1.6 fold
- Effects on Transcription Level: Novel gene fragment, 167 bp, 90% SI to mouse Rab20 [X80332] ([2]; CARDIOTOX 24): +1.7 fold
- Effects on Transcription Level: Novel gene fragment, 1070 bp, 80% SI to human muscle-specific protein [AF249873] ([2]; CARDIOTOX 25): +1.5 fold
- Effects on Transcription Level: Novel gene fragment, 1143 bp, 82% SI to human sarcoma amplified sequence (SAS) [U01160] ([2]; CARDIOTOX 26): +1.7 fold
- Effects on Transcription Level: Novel gene fragment, 74 bp,75% SI to human secreted protein [X30160] (from patent database)/[X97578] (from patent database)/potential cytokine) ([2]; CARDIOTOX 27): +1.5 fold
- Effects on Transcription Level: Novel gene fragment, 408 bp, 90% SI to human CGI-07 protein [AF132941] ([2]; CARDIOTOX 28): +1.6 fold
- Effects on Transcription Level: Novel gene fragment, 618 bp, 95% SI to rat progression related cDNA, ZNPE-120 3′ end partial sequence [patent database X90805] ([2]; CARDIOTOX 29): +1.5 fold
- Effects on Transcription Level: Novel gene fragment, 717 bp ([2]; CARDIOTOX 30): +1.5 fold
- Effects on Transcription Level: Novel gene fragment, 546 bp ([2]; CARDIOTOX 31): +1.8 fold
- Effects on Transcription Level: Novel gene fragment, 920 bp, 91% SI to human HSPC061 [AF161546] ([2]; CARDIOTOX 32): +1.5 fold
- Effects on Transcription Level: Novel gene fragment, 203 bp, 92% SI to rabbit sarcoplasmic reticulum glycoprotein [J04480] ([2]; CARDIOTOX 33): −1.7 fold
- Effects on Transcription Level: Novel gene fragment, 178 bp, 68% SI to mouse IgG receptor (beta-Fc-gamma-RII)[M63159] ([2]; CARDIOTOX 34): +1.6 fold
- Effects on Transcription Level: Ribosomal protein L6 ([2]; CARDIOTOX 35, GenBank X87107): +1.6 fold
- Effects on Transcription Level: CAP2 protein (adenylyl cyclase-associated protein 2) ([2]; CARDIOTOX 36, GenBank U31935): +2.0 fold
- Effects on Transcription Level: Alpha-platelet-derived growth factor receptor ([2]; CARDIOTOX 37, GenBank M63837): +1.6 fold
- Effects on Transcription Level: Rab GD1 alpha protein ([2]; CARDIOTOX 38, GenBank X74402): −1.6 fold
- Effects on Transcription Level: PKC-zeta-interacting protein ([2]; CARDIOTOX 39, GenBank Y08355): +1.6 fold
- Effects on Transcription Level: ERK or MAP kinase ([2]; CARDIOTOX 40, GenBank X65198): +1.5 fold
- Effects on Transcription Level: Peroxisomal multifunctional enzyme type II ([2]; CARDIOTOX 41, GenBank U37486): +1.5 fold
- Effects on Transcription Level: HBP23 (heme-binding protein 23 kDa) ([2]; CARDIOTOX 42, GenBank D30035): +1.7 fold
- Effects on Transcription Level: Caveolae-associated protein ([2]; CARDIOTOX 43, GenBank U90725): +3.0 fold
- Effects on Transcription Level: Prenylated rab acceptor 1 (PRA1) ([2]; CARDIOTOX 44, GenBank AF025506): +1.5 fold
- Effects on Transcription Level: Novel gene fragment, 337 bp, 88% SI to rabbit cardiac ryanodine receptor (RyR-2)[U50465] ([2]; CARDIOTOX 45): −1.7 fold
- Effects on Transcription Level: Novel gene fragment, 81 bp, 85% SI to human titin [X90568] ([2]; CARDIOTOX 46): −2.2 fold
- Effects on Transcription Level: Novel gene fragment, 428 bp, 86% SI to human titin [X90568] ([2]; CARDIOTOX 47): −2.0 fold
- Effects on Transcription Level: Novel gene fragment, 374 bp, 88% SI to human titin [X90568] ([2]; CARDIOTOX 48): −2.3 fold
- Effects on Transcription Level: Novel gene fragment, 428 bp, 85% SI to human titin [90568] ([2]; CARDIOTOX 49): −2.2 fold
- Effects on Transcription Level: Novel gene fragment, 1216 bp, 93% SI to mouse mircotubule-associated protein (MAP) 1B protein [AF115776] ([2]; CARDIOTOX 50): −1.9 fold
- Effects on Transcription Level: Novel gene fragment, 1115 bp, 83% SI to human KIAA0549 protein [AB011121] ([2]; CARDIOTOX 51): −2.0 fold
- Effects on Transcription Level: Novel gene fragment, 153 bp ([2]; CARDIOTOX 52): −1.7 fold
- Effects on Transcription Level: Novel gene fragment, 89 bp, 93% SI to human putative glialblastoma cell differentiation-related protein (GBDR1) [AF068195] ([2]; CARDIOTOX 53): −1.6 fold
- Effects on Transcription Level: Rho-associated kinase beta ([2]; CARDIOTOX 54, GenBank U61266): −1.9 fold
- Effects on Transcription Level: Adenylate kinase 3 ([2]; CARDIOTOX 55, GenBank D13062): +1.5 fold
- Effects on Transcription Level: Amyloid beta-peptide binding protein ([2]; CARDIOTOX 56, GenBank AF049878): +1.5 fold
- Effects on Transcription Level: Mitochondrial adenine nuleotide translocator ([2]; CARDIOTOX 57, GenBank D12771): +1.5 fold
- Effects on Transcription Level: Novel gene fragment, 710 bp, 94% SI to mouse chromatin structural protein homolog Supt5 hp (Supt5 h)[U88539] ([2]; CARDIOTOX 58): +3.8 fold
- Effects on Transcription Level: Novel gene fragment, 186 bp, 66% SI to human N-acetylglucosaminyltransferase 1 (GlcNAc-TI)[M55621] ([2]; CARDIOTOX 60): −1.7 fold
- Effects on Transcription Level: Novel gene fragment, 238 bp, 95% SI to mouse MAP kinase-activated protein kinase 2 [X76850] ([2]; CARDIOTOX 61): −2.1 fold
- Effects on Transcription Level: Novel gene fragment, 173 bp, 70% SI to G protein-coupled receptor kinase GRK4 [X97568] ([2]; CARDIOTOX 62): −6.1 fold
- Effects on Transcription Level: Novel gene fragment, 133 bp, 77% SI to human apoptosis related protein hSARP3 [patent database: V19114] ([2]; CARDIOTOX 63): −3.4 fold
- Effects on Transcription Level: Novel gene fragment, 477 bp, 98% SI to peroxisomal phytanoyl-CoA hydroxylase (PHYH) [AF121345] ([2]; CARDIOTOX 64): +5.0 fold
- Effects on Transcription Level: Novel gene fragment, 413 bp, 95% SI to mouse dihydrolipoamide dehydrogenase (Dld) [U73445] ([2]; CARDIOTOX 65): +1.9 fold
- Effects on Transcription Level: Novel gene fragment, 726 bp, 76% SI to human succinate dehydrogenase flavoprotein subunit (SDH) [L21936] ([2]; CARDIOTOX 66): −4.1 fold
- Effects on Transcription Level: Novel gene fragment, 440 bp, 92% SI to mouse cytochrome c oxidase Vllc [X52940] ([2]; CARDIOTOX 67): +3.6 fold
- Effects on Transcription Level: Novel gene fragment, 276 bp, 80% SI to human titin [X90568] ([2]; CARDIOTOX 68): −11.9 fold
- Effects on Transcription Level: Novel gene fragment, 149 bp, 70% SI to human titin [X90568] ([2]; CARDIOTOX 69): −5.5 fold
